Source: patent US20090288227A1, “Improvements in or Relating to Starch Storage in Plants” (University of Durham, priority 2006, published 2009)
Marks after values point to notes of the source that are not given here.

Legend:
Type in all cases: in vivo, Arabidopsis thaliana
LEC2 transcripts = experiment: Semi-quantitative RT-PCR of LEC2 transcript in treated tnp seedlings; conditions: tnp seedlings at 1-2 days post-germination
Source text: (§1) Alternatively, it is possible that these compounds may act by changing the expression of other key embryonic regulators to alter penetrance. FUS3 and LEC2 play key roles in embryogenesis and the transition to germination (Luerben et al, 1998 Plant J. 15, 755-764; Stone et al, 2001 Proc. Natl. Acad. Sci. USA 98, 11806-11811; Kroj et al, 2003 Development 130, 6065-6073). Semi-quantitative RT-PCR was used to determine whether the transcript levels in these genes were affected in tnp seedlings at 1-2 days post-germination in response to treatment with these compounds (see FIG. 10b).

tnp seedlings = experiment: Penetrance of the tnp phenotype in seedlings germinated and grown on medium containing the compound; conditions: for effect on penetrance of the tnp phenotype: tnp seed germinated and grown in presence of the compound, result in words
Experimental: In order to establish whether the incomplete penetrance was due to methylation-dependent gene silencing, individual T3 sibling lines were germinated in the presence of 100 μM 5-azacytidine, a methylation inhibitor (Jones and Taylor, 1980 Cell 20, 85-93). […]
The tnp mutant phenotype is similar to that of the pkl mutant, which is characterised by the development of swollen and greenish roots that accumulate triacylglycerols and protein bodies (Ogas et al, 1997 Science 277, 91-94; Ogas et al, 1999 Proc. Natl. Acad. Sci. USA 96, 13839-13844). The penetrance of the pkl mutant phenotype is also variable and is affected by gibberellic acid and the gibberellin biosynthesis inhibitor, uniconazole-P. In order to determine whether growth factors have an effect on the penetrance of the tnp phenotype, the tnp seed was germinated and grown in the presence of a number of compounds (see Table 2).
Given the large quantities of starch stored in tnp, the effect of sugars on penetrance was examined. […] Furthermore, the effect of 1% glucose or fructose was not as potent as the effect obtained from sucrose alone. […] The effect of sugars on the penetrance of tnp was not due to an osmotic effect, since mannitol was ineffective at inducing penetrance in the absence of sugar (data not shown).

LEC1 transcript = experiment: Semi-quantitative RT-PCR of LEC1 transcript in treated germinating seedlings; conditions: tnp and pls control seedlings, RNA at 1-2 days post-germination
Experimental: To investigate the mechanism by which these compounds work, germinating seedlings were treated with each of the compounds, as well as with gibberellic acid (which has no effect on penetrance), and RNA was extracted at 1-2 days post-germination. […] Therefore, the effect of these compounds on penetrance is not mediated by alterations in LEC1 transcript levels, although post-transcriptional or translational effects cannot be excluded.

FUS3 transcript = experiment: Semi-quantitative RT-PCR of FUS3 transcript in treated tnp seedlings; conditions: tnp seedlings at 1-2 days post-germination
Source text: as §1

[1] = Table 2 second series (1/2MS10 control 47.8), 10 nM
[2] = Table 2 second series (1/2MS10 control 47.8), 100 nM
[3] = Table 2 first series (1/2 MS10 control 32.8), 10 nM
[4] = Table 2 second series (1/2MS10 control 47.8), 1 μM
[5] = Table 2 first series (1/2 MS10 control 32.8), 10 uM

SMILES: CC(C)(C)[C@@H](O)[C@@H](Cc1ccc(Cl)cc1)n1cncn1 (racemic) [Paclobutrazol, paclobutrazol]
- levels of LEC2 transcripts (LEC2 transcripts): no effect
- % tnp (tnp seedlings; [1]): 84.7%
- % tnp (tnp seedlings; [2]): 72.3* %
- effect on penetrance of the tnp phenotype (tnp seedlings): increased
- LEC1 transcript levels (LEC1 transcript): unaltered
- FUS3 transcript levels (FUS3 transcript): did not have a significant effect

SMILES: O=C(O)COc1ccc(Cl)cc1Cl [2,4-D, 2,4-dichlorophenoxyacetic acid]
- levels of LEC2 transcripts (LEC2 transcripts): significantly reduce
- % tnp (tnp seedlings; 0% suc. + 10 nm 2,4-D): 2%
- % tnp (tnp seedlings; 1% suc. + 10 nm 2,4-D): 85.1%
- % tnp (tnp seedlings; 2% suc. + 10 nm 2,4-D): 92.3%
- % tnp (tnp seedlings; 3% suc. + 10 nm 2,4-D): 84.1%
- % tnp (tnp seedlings; 4% suc. + 10 nm 2,4-D): 68.9%
- % tnp (tnp seedlings; 5% suc. + 10 nm 2,4-D): 82.4%
- % tnp (tnp seedlings; 6% suc. + 10 nm 2,4-D): 66.0%
- % tnp (tnp seedlings; [3]): 78.1%
- % tnp (tnp seedlings; [1]): 82.1%
- % tnp (tnp seedlings; [2]): 95.3%
- % tnp (tnp seedlings; [4]): 98.2%
- tnp penetrance compared with sucrose alone (tnp seedlings; addition of 10 nM 2,4-D to the medium, even in absence of sucrose): greater penetrance
- penetrance of the tnp phenotype (tnp seedlings; concentration of 1 μM): ~100%
- penetrance of tnp (tnp seedlings; medium containing 20% sucrose and 25 nM 2,4-D, no effect on growth): highest penetrance
- effect on penetrance of the tnp phenotype (tnp seedlings): positive effect
- FUS3 transcript levels (FUS3 transcript): increase

SMILES: Nc1ncn([C@@H]2O[C@H](CO)[C@@H](O)[C@H]2O)c(=O)n1 [5-AZA-C, 5-azacytidine]
- % tnp (tnp seedlings; T3 Line 1, 100 μm 5-AZA-C, 1/2MS10 control 28): 62%
- % tnp (tnp seedlings; T3 Line 7, 100 μM 5-AZA-C, 1/2MS10 control 0): 7.4%
- % tnp (tnp seedlings; T3 Line 21, 100 μM 5-AZA-C, 1/2MS10 control 41): 48%
- penetrance of the tnp phenotype compared with control levels (tnp seedlings; T3 sibling lines germinated in presence of 100 μM, highly variable between lines): increase in the penetrance

SMILES: CC1=CC(=O)CC(C)(C)[C@@]1(O)/C=C/C(C)=C\C(=O)O [ABA, abscisic acid]
- effect on penetrance of the tnp phenotype (tnp seedlings): not found to have an effect

SMILES: NC1(C(=O)O)CC1 [ACC, 1-aminocyclopropane-1-carboxylate]
- % tnp (tnp seedlings; Table 2 first series (1/2 MS10 control 32.8), 100 pM): 29.3%
- effect on penetrance of the tnp phenotype (tnp seedlings): little effect

SMILES: c1ccc(CNc2ncnc3nc[nH]c23)cc1 [BA, N(6)-benzyladenine]
- levels of LEC2 transcripts (LEC2 transcripts): significantly reduce
- % tnp (tnp seedlings; Table 2 first series (1/2 MS10 control 32.8), 100 nM): 9.9%
- % tnp (tnp seedlings; [1]): 55%
- % tnp (tnp seedlings; [2]): 35.6%
- % tnp (tnp seedlings; [4]): 5%
- effect on penetrance of the tnp phenotype (tnp seedlings): markedly suppressed
- FUS3 transcript levels (FUS3 transcript): reduction

SMILES: C=C1C[C@]23C[C@@]1(O)CC[C@H]2[C@@]12C=C[C@H](O)[C@@](C)(C(=O)O1)[C@H]2[C@@H]3C(=O)O [GA, gibberellic acid]
- levels of LEC2 transcripts (LEC2 transcripts): significantly reduce
- effect on the positive effect of paclobutrazol on tnp penetrance (tnp seedlings; 10 nM paclobutrazol and 10 μM gibberellic acid together, data not shown): partially suppressed
- % tnp (tnp seedlings; [5]): 37.3%
- % tnp (tnp seedlings; [1]): 42.1%
- % tnp (tnp seedlings; [2]): 52%
- % tnp (tnp seedlings; [4]): 58.4%
- % tnp (tnp seedlings; Table 2 second series (1/2MS10 control 47.8), 10 μM): 45.4%
- effect on penetrance of the tnp phenotype (tnp seedlings): weakly positive effect
- LEC1 transcript levels (LEC1 transcript): unaltered
- FUS3 transcript levels (FUS3 transcript): did not have a significant effect

SMILES: O=C(O)Cc1c[nH]c2ccccc12 [IAA, indole-3-acetic acid]
- % tnp (tnp seedlings; Table 2 first series (1/2 MS10 control 32.8), 50 nM): 69.1%
- effect on penetrance of the tnp phenotype (tnp seedlings): positive effect

SMILES: O=C(O)Cc1cccc2ccccc12 [NAA, naphthaleneacetic acid]
- % tnp (tnp seedlings; [3]): 42.8%

SMILES: O=C(O)COc1cccc2ccccc12 [NOA, naphthoxyacetic acid]
- % tnp (tnp seedlings; [5]): 58.8%
- effect on penetrance of the tnp phenotype (tnp seedlings): positive effect

SMILES: O=C(O)c1ccccc1C(=O)Nc1cccc2ccccc12 [NPA, 1-N-naphthylphthalamic acid]
- % tnp (tnp seedlings; [5]): 55.4%
- effect on penetrance of the tnp phenotype (tnp seedlings): positive effect

SMILES: O=C(CO)[C@@H](O)[C@H](O)[C@H](O)CO [fructose]
- effect on tnp penetrance compared with sucrose alone (tnp seedlings; 1% sugar, data not shown): not as potent

SMILES: OC[C@@H](O)[C@@H](O)[C@H](O)[C@H](O)CO [mannitol]
- inducing tnp penetrance in the absence of sugar (tnp seedlings; osmotic control, data not shown): ineffective

SMILES: OC[C@H]1O[C@@](CO)(O[C@H]2O[C@H](CO)[C@@H](O)[C@H](O)[C@H]2O)[C@@H](O)[C@@H]1O [suc., sucrose]
- % tnp (tnp seedlings; 1% suc. in medium): 60.5%
- % tnp (tnp seedlings; 2% suc. in medium): 65.4%
- % tnp (tnp seedlings; 3% suc. in medium): 58.4%
- % tnp (tnp seedlings; 4% suc. in medium): 52.4%
- % tnp (tnp seedlings; 5% suc. in medium): 54.1%
- % tnp (tnp seedlings; 6% suc. in medium): 42.8%
- level of tnp penetrance over sucrose concentrations (tnp seedlings; concentration of 2% sucrose): highest level of penetrance
